According to US20250221966A1, “RXFP1 AGONISTS” (BRISTOL-MYERS SQUIBB COMPANY, priority 2021, published 2025):

Target: T1, human RXFP1 (Homo sapiens, UniProt Q9HBX9)
T1 construct: expressed in transfected cells
T1 sequence (Q9HBX9 1-757): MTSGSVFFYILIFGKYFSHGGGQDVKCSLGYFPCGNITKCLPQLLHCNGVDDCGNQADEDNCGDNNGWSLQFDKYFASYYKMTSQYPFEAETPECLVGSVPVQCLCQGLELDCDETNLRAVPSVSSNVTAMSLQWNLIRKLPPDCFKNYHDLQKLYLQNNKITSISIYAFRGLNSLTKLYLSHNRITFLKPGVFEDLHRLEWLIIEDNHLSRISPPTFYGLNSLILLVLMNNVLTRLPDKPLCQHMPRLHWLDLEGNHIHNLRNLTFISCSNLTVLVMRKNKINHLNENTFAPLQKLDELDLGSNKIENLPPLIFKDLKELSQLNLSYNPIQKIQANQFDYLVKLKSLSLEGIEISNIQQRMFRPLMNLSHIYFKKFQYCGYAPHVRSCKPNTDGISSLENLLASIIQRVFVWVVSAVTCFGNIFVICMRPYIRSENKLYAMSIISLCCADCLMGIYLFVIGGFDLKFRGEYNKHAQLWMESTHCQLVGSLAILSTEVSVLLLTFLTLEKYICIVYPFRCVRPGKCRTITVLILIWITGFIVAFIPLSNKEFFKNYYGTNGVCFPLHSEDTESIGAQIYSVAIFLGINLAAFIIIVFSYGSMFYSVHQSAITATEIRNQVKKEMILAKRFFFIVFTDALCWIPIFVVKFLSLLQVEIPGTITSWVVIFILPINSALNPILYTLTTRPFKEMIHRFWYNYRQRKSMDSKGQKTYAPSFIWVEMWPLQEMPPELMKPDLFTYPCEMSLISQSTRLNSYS
Assay: RXFP1 cAMP assay (hRXFP1 HEK293 cAMP assay, HTRF)
Type: cell-based
Conditions: HEK293 cells stably expressing human RXFP1, 30 min at room temperature, read-out: cAMP hRXFP1 HEK293 Assay EC50
In short: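 hRXFP1-HEK293 stable line; HBSS + Ca/Mg, 20 mM HEPES, 0.05% BSA, 0.5 mM IBMX; cpd 0.010 nM–50 μM, 2% DMSO; 30 min RT; lysis, HTRF cAMP detection; 4-PL fit.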

Row | EC50 | SMILES
1 | 150 nM | COC(=O)c1cccc(-c2ccc(OC)c(C(=O)N[C@H]3[C@@H](C(=O)Nc4ccc(F)c(C(F)(F)F)c4)[C@H]4CC[C@@H]3C4=C(C)C)c2)c1 [compound 86]
2 | 1 nM | COc1ccc(-c2cc(C(OC(=O)NC3CCC3)C(F)F)ccc2F)cc1C(=O)N[C@H]1[C@@H](C(=O)Nc2ccc(F)c(C(F)(F)F)c2)[C@H]2CC[C@@H]1/C2=C\C1CC1 (single isomer, unassigned) [Example 230]
3 | 1880 nM | COc1ccc(-c2cc(C(=O)O)ccc2F)cc1C(=O)N[C@@H]1C2CCC(/C2=C/C2CC2)[C@@H]1C(=O)N[C@H](C)c1ccccc1 (stereo partly shown) [compound 261]
4 | 70 nM | C=C(C)/C=C1\C2CCC1[C@H](C(=O)Nc1ccc(F)c(C(F)(F)F)c1)[C@@H]2NC(=O)c1cc(F)c(F)cc1OC (stereo partly shown) [compound 43]
5 | 171 nM | COc1cc(C2CC2)c(C2=NOC3COCC23)cc1C(=O)N[C@H]1C(C(=O)Nc2ccc(F)c(C(F)(F)F)c2)[C@H]2CC[C@@H]1/C2=C\C1CC1 (single isomer, unassigned) [Example 626]
6 | 1100 nM | COc1cc(F)c(F)cc1C(=O)N[C@@H]1C2CCC(/C2=C/C2=CCOC2)[C@@H]1C(=O)Nc1ccc(F)c(C(F)(F)F)c1 (stereo partly shown) [compound 58]
7 | 13.9 nM | COc1ccc(C2=NOC3COCC23)cc1C(=O)N[C@H]1[C@@H](C(=O)NC23CC(C#N)(C2)C3)[C@H]2CC[C@@H]1/C2=C\C1CC1 (stereo partly shown) [compound 777]
8 | 92.7 nM | COc1ccc(C2=NOC(C(C)O)C2)cc1C(=O)N[C@H]1[C@@H](C(=O)Nc2ccc(F)c(C(F)(F)F)c2)[C@H]2CC[C@@H]1/C2=C\C1CC1 (single isomer, unassigned) [compound 595]
9 | 2.7 nM | COc1ccc(C2=NO[C@@H]3C[C@@H](CO)CN23)cc1C(=O)N[C@H]1[C@@H](C(=O)Nc2ccc(F)c(C(F)(F)F)c2)[C@H]2CC[C@@H]1/C2=C\C1CC1 [compound 849]
10 | 22.4 nM | COc1ccc(N2CC(CO)CC2=O)cc1C(=O)N[C@H]1[C@@H](C(=O)Nc2ccc(F)c(C(F)(F)F)c2)[C@H]2CC[C@@H]1/C2=C\C1CC1 (stereo partly shown) [compound 526]
11 | 133 nM | CCC(CC)NC(=O)[C@@H]1[C@H](NC(=O)c2cc(C3=NOC4COCC34)ccc2OC)[C@@H]2CC[C@H]1/C2=C/C1CC1 (stereo partly shown) [compound 611]
12 | 1 nM | COc1ccc(-c2cc(C(OC(=O)NC3CC3)C(F)(F)F)ccc2F)cc1C(=O)N[C@@H]1C2CCC(/C2=C/C2CC2)[C@@H]1C(=O)Nc1ccc(F)c(C(F)(F)F)c1 (stereo partly shown) [compound 208]
13 | 6.7 nM | COc1ccc(C2=NOC(CO)C2CO)cc1C(=O)N[C@H]1[C@@H](C(=O)Nc2ccc(F)c(C(F)(F)F)c2)[C@H]2CC[C@@H]1/C2=C\C1CC1 (single isomer, unassigned) [compound 481]
14 | 118 nM | COc1ccc(C2=NOC3COCC23)cc1C(=O)N[C@H]1[C@@H](C(=O)NC2CC3(C2)CC(F)(F)C3)[C@H]2CC[C@@H]1/C2=C\C1CC1 (stereo partly shown) [compound 605]
15 | 2.5 nM | COc1ccc(C2=NO[C@@H]3C[C@H](C(F)(F)F)CN23)cc1C(=O)N[C@H]1[C@@H](C(=O)Nc2ccc(F)c(C(F)(F)F)c2)[C@H]2CC[C@@H]1/C2=C\C1CC1 [compound 847]
16 | 2 nM | CNC(=O)OC(c1ccc(F)c(-c2ccc(OC)c(C(=O)N[C@@H]3C4CCC(/C4=C/C4CC4)[C@@H]3C(=O)Nc3ccc(F)c(C(F)(F)F)c3)c2)c1)C(F)(F)F (stereo partly shown) [compound 217]
17 | 40 nM | C=C/C=C1\C2CCC1[C@H](C(=O)Nc1ccc(F)c(C(F)(F)F)c1)[C@@H]2NC(=O)c1cc(-c2cc(C(=O)NS(C)(=O)=O)ccc2F)ccc1OC (stereo partly shown) [compound 162]
18 | 130 nM | COc1ccc(C2=NOC3COCC23)cc1C(=O)N[C@H]1[C@@H](C(=O)N[C@@H](C)C2(C)CC2)[C@H]2CC[C@@H]1/C2=C\C1CC1 (stereo partly shown) [compound 609]
19 | 7.8 nM | COc1c(F)cc(C2=NOC3CC(O)(C(F)(F)F)CC23)cc1C(=O)N[C@H]1[C@@H](C(=O)Nc2ccc(F)c(C(F)(F)F)c2)[C@H]2CC[C@@H]1/C2=C\C1CC(F)(F)C1 (stereo partly shown) [compound 914]
20 | 940 nM | COc1ccc(/C=C2\C3CCC2[C@H](C(=O)Nc2ccc(F)c(C(F)(F)F)c2)[C@@H]3NC(=O)c2cc(F)c(F)cc2OC)cc1 (stereo partly shown) [compound 20]

Row | EC50 | SMILES
21 | 64 nM | COc1ccc(-c2cc(C(O)C(=O)O)ccc2F)cc1C(=O)N[C@H]1[C@@H](C(=O)Nc2ccc(F)c(C(F)(F)F)c2)[C@H]2CC[C@@H]1/C2=C\CC1CC(F)(F)C1 (stereo partly drawn) [Example 352, 2-(3′-(((1R,2R,3S,4R,Z)-7-(2-(3,3-difluorocyclobutyl)ethylidene)-3-((4-fluoro-3-(trifluoromethyl)phenyl)carbamoyl)bicyclo[2.2.1]heptan-2-yl)carbamoyl)-6-fluoro-4′-methoxy-[1,1′-biphenyl]-3-yl)-2-hydroxyacetic acid]
22 | 6.1 nM | COc1ccc(C2=NOC3COCC23)cc1C(=O)N[C@H]1[C@@H](C(=O)NC2(C#N)CCCC2)[C@H]2CC[C@@H]1/C2=C\C1CC1 (stereo partly shown) [compound 476]
23 | 89.8 nM | COc1ccc(C2=NOC3(CCNC3)C2)cc1C(=O)N[C@H]1[C@@H](C(=O)Nc2ccc(F)c(C(F)(F)F)c2)[C@H]2CC[C@@H]1/C2=C\C1CC1 (stereo partly shown) [compound 593]
24 | 3.4 nM | COc1cc(C)c(C2=NOC3CC(CO)CC23)cc1C(=O)N[C@H]1[C@@H](C(=O)Nc2ccc(F)c(C(F)(F)F)c2)[C@H]2CC[C@@H]1C2CC1CC1 (stereo partly shown) [compound 739]
25 | 240 nM | CNC(=O)c1ccc(F)c(-c2ccc(OC)c(C(=O)N[C@H]3[C@@H](C(=O)Nc4ccc(F)c(C(F)(F)F)c4)[C@H]4CC[C@@H]3C4=C(C)C)c2)c1 [compound 151]
26 | 1 nM | COc1ccc(-c2cc(C(OC(=O)N(C)C3CCC3)C(F)(F)F)ccc2F)cc1C(=O)N[C@@H]1C2CCC(/C2=C/C2CC2)[C@@H]1C(=O)Nc1ccc(F)c(C(F)(F)F)c1 (stereo partly shown) [compound 209]
27 | 1980 nM | Cc1ccc(C2=NOC3COCC23)cc1C(=O)N[C@H]1[C@@H](C(=O)Nc2ccc(F)c(C(F)(F)F)c2)[C@H]2CC[C@@H]1/C2=C\C1CC1 (single isomer, unassigned) [compound 716]
28 | 2080 nM | COc1ccc(N2CCC(NC(=O)C3CCOCC3)C2)cc1C(=O)N[C@@H]1C2CCC(/C2=C/C(F)(F)F)[C@@H]1C(=O)Nc1ccc(F)c(C(F)(F)F)c1 (single isomer, unassigned) [compound 337]
29 | 2 nM | COc1ccc(-c2cc([C@H](OC(=O)NC3CCC3)C(F)(F)F)ccc2F)cc1C(=O)N[C@@H]1C2CCC(/C2=C/C2CC(F)(F)C2)[C@@H]1C(=O)Nc1ccc(F)c(C(F)(F)F)c1 (stereo partly shown) [compound 359]
30 | 219 nM | COc1ccc(C2=NOC3(CCCC3)C2)cc1C(=O)N[C@H]1[C@@H](C(=O)Nc2ccc(F)c(C(F)(F)F)c2)[C@H]2CC[C@@H]1/C2=C\C1CC1 [compound 642]
31 | 630 nM | COc1cc(F)c(F)cc1C(=O)N[C@@H]1C2CCC(/C2=C/c2ccc3ccccc3c2)[C@@H]1C(=O)Nc1ccc(F)c(C(F)(F)F)c1 (stereo partly shown) [compound 18]
32 | 0.6 nM | COc1ccc(C2=NOC3CC(CO)CC23)cc1C(=O)N[C@H]1[C@@H](C(=O)Nc2ccc(F)c(C(F)(F)F)c2)[C@H]2CC[C@@H]1/C2=C\C1CCC1 (stereo partly shown) [compound 446]
33 | 1 nM | COc1ccc(-c2ccc(C(CC(=O)O)C(F)(F)F)cc2F)cc1C(=O)N[C@H]1[C@@H](C(=O)Nc2ccc(F)c(C(F)(F)F)c2)[C@H]2CC[C@@H]1/C2=C\C1CC1 (stereo partly shown) [compound 884]
34 | 36 nM | COc1ccc(-c2ccc(N3CCOCC3)c(C(=O)OC(C)(C)C)c2)cc1C(=O)N[C@H]1[C@@H](C(=O)Nc2ccc(F)c(C(F)(F)F)c2)[C@H]2CC[C@@H]1/C2=C\C1CC1 [Example 251, tert-butyl 3′-(((1R,2R,3S,4R,Z)-7-(cyclopropylmethylene)-3-((4-fluoro-3-(trifluoromethyl)phenyl)carbamoyl)bicyclo[2.2.1]heptan-2-yl)carbamoyl)-4′-methoxy-4-morpholino-[1,1′-biphenyl]-3-carboxylate]
35 | 710 nM | COc1cc(F)c(F)cc1C(=O)N[C@@H]1C2CCC(C2Cc2ccccc2)[C@@H]1C(=O)Nc1ccc(F)c(C(F)(F)F)c1 (stereo partly shown) [compound 976]
36 | 1190 nM | COc1ccc(C2CCCN2)cc1C(=O)N[C@@H]1C2CCC(C2=CC2CC2)[C@@H]1C(=O)Nc1ccc(F)c(C(F)(F)F)c1 (stereo partly shown) [compound 703]
37 | 55 nM | COc1cc(F)c(F)cc1C(=O)N[C@@H]1C2CCC(/C2=C/c2cccc(F)c2)[C@@H]1C(=O)Nc1ccc(F)c(C(F)(F)F)c1 (stereo partly shown) [compound 30]
38 | 480 nM | COc1cc(F)c(F)cc1C(=O)N[C@@H]1C2CCC(/C2=C/c2ccccn2)[C@@H]1C(=O)Nc1ccc(F)c(C(F)(F)F)c1 (stereo partly shown) [compound 137]
39 | 4.8 nM | COc1ccc(-c2cnn3c2CC(O)CC3)cc1C(=O)N[C@H]1[C@@H](C(=O)N[C@@H](C)C2(C)CC2)[C@H]2CC[C@@H]1/C2=C\C1CC1 (stereo partly shown) [compound 871]
40 | 5 nM | COc1ccc(C2=NOC3CC(NC(=O)CO)CC23)cc1C(=O)N[C@@H]1C2CCC(/C2=C/C2CC2)[C@@H]1C(=O)Nc1ccc(F)c(C(F)(F)F)c1 (stereo partly shown) [compound 743]
